Measurements as given in ChEMBL document CHEMBL4507269, “Data for DCP probe BAY-386” (2021).

What was measured:
[1] = system: Proto-oncogene tyrosine-protein kinase receptor Ret (Homo sapiens), P07949 [V804M]; details: Compound concentration 1000.0 nM
[2] = target: Activated CDC42 kinase 1 (Homo sapiens) (UniProt Q07912); details: Compound concentration 1000.0 nM
[3] = target: Mitogen-activated protein kinase kinase kinase 12 (Homo sapiens) (UniProt Q12852); details: Compound concentration 1000.0 nM
[4] = target: Fibroblast growth factor receptor 1 (Homo sapiens) (UniProt P11362); details: Compound concentration 1000.0 nM
[5] = target: Tyrosine-protein kinase receptor TYRO3 (Homo sapiens) (UniProt Q06418); details: Compound concentration 1000.0 nM
[6] = target: Calcium/calmodulin-dependent protein kinase type II subunit gamma (Homo sapiens) (UniProt Q13555); details: Compound concentration 1000.0 nM
[7] = target: Vascular endothelial growth factor receptor 2 (Homo sapiens) (UniProt P35968); details: Compound concentration 1000.0 nM
[8] = system: ALK tyrosine kinase receptor (Homo sapiens), Q9UM73 [C1156Y]; details: Compound concentration 1000.0 nM
[9] = target: TGF-beta receptor type-1 (Homo sapiens) (UniProt P36897); details: Compound concentration 1000.0 nM
[10] = target: Calcium/calmodulin-dependent protein kinase type II subunit delta (Homo sapiens) (UniProt Q13557); details: Compound concentration 1000.0 nM
[11] = system: eIF-2-alpha kinase GCN2 (Homo sapiens), Q9P2K8 [S808G]; details: Compound concentration 1000.0 nM
[12] = target: MAP/microtubule affinity-regulating kinase 4 (Homo sapiens) (UniProt Q96L34); details: Compound concentration 1000.0 nM
[13] = target: Activin receptor type-1B (Homo sapiens) (UniProt P36896); details: Compound concentration 1000.0 nM
[14] = target: MAP kinase-interacting serine/threonine-protein kinase 2 (Homo sapiens) (UniProt Q9HBH9); details: Compound concentration 1000.0 nM
[15] = target: Cyclin-dependent kinase-like 2 (Homo sapiens) (UniProt Q92772); details: Compound concentration 1000.0 nM
[16] = target: RAC-gamma serine/threonine-protein kinase (Homo sapiens) (UniProt Q9Y243); details: Compound concentration 1000.0 nM
[17] = target: Receptor-interacting serine/threonine-protein kinase 4 (Homo sapiens) (UniProt P57078); details: Compound concentration 1000.0 nM
[18] = system: Tyrosine-protein kinase ABL1 (Homo sapiens), P00519 [H396P]; details: Compound concentration 1000.0 nM
[19] = target: Histamine H1 receptor (Homo sapiens) (UniProt P35367); assay: H1 (h) Eurofins-Cerep Cellular and Nuclear Receptor Functional Assays; details: Compound concentration 10.0 uM
[20] = target: Testis-specific serine/threonine-protein kinase 3 (Homo sapiens) (UniProt Q96PN8); details: Compound concentration 1000.0 nM
[21] = target: Tyrosine-protein kinase ABL1 (Homo sapiens) (UniProt P00519); details: Compound concentration 1000.0 nM
[22] = target: TGF-beta receptor type-2 (Homo sapiens) (UniProt P37173); details: Compound concentration 1000.0 nM
[23] = target: Ribosomal protein S6 kinase beta-1 (Homo sapiens) (UniProt P23443); details: Compound concentration 1000.0 nM
[24] = target: Serine/threonine-protein kinase 33 (Homo sapiens) (UniProt Q9BYT3); details: Compound concentration 1000.0 nM
[25] = target: Substance-P receptor (Homo sapiens) (UniProt P25103); assay: NK1 (h) Eurofins-Cerep Cellular and Nuclear Receptor Functional Assays; details: Compound concentration 10.0 uM
[26] = target: Alpha-2C adrenergic receptor (Homo sapiens) (UniProt P18825); details: Compound concentration 10.0 uM
[27] = system: Phosphatidylinositol 4,5-bisphosphate 3-kinase catalytic subunit alpha isoform (Homo sapiens), P42336 [E542K]; details: Compound concentration 1000.0 nM
[28] = target: Serine/threonine-protein kinase 38 (Homo sapiens) (UniProt Q15208); details: Compound concentration 1000.0 nM
[29] = target: Rho-associated protein kinase 1 (Homo sapiens) (UniProt Q13464); details: Compound concentration 1000.0 nM
[30] = system: Leucine-rich repeat serine/threonine-protein kinase 2 (Homo sapiens), Q5S007 [G2019S]; details: Compound concentration 1000.0 nM
[31] = target: Phosphatidylinositol 5-phosphate 4-kinase type-2 gamma (Homo sapiens) (UniProt Q8TBX8); details: Compound concentration 1000.0 nM
[32] = target: Ephrin type-A receptor 8 (Homo sapiens) (UniProt P29322); details: Compound concentration 1000.0 nM
[33] = target: Ephrin type-B receptor 6 (Homo sapiens) (UniProt O15197); details: Compound concentration 1000.0 nM
[34] = target: Beta-1 adrenergic receptor (Homo sapiens) (UniProt P08588); assay: beta1 (h) Eurofins-Cerep Cellular and Nuclear Receptor Functional Assays; details: Compound concentration 10.0 uM
[35] = target: Proteinase-activated receptor 4 (Homo sapiens, UniProt Q96RI0); assay: Functional cellular assay (HEK cells) (F2RL3)
Rattus norvegicus = species: Rattus norvegicus; details: Compound concentration 10.0 uM
[36] = target: Serine/threonine-protein kinase N2 (Homo sapiens) (UniProt Q16513); details: Compound concentration 1000.0 nM
[37] = target: Mitogen-activated protein kinase kinase kinase 15 (Homo sapiens) (UniProt Q6ZN16); details: Compound concentration 1000.0 nM
[38] = target: Dual specificity testis-specific protein kinase 1 (Homo sapiens) (UniProt Q15569); details: Compound concentration 1000.0 nM
[39] = target: Serine/threonine-protein kinase 32A (Homo sapiens) (UniProt Q8WU08); details: Compound concentration 1000.0 nM
[40] = target: Serine/threonine-protein kinase pim-2 (Homo sapiens) (UniProt Q9P1W9); details: Compound concentration 1000.0 nM
[41] = target: Mitogen-activated protein kinase 1 (Homo sapiens) (UniProt P28482); details: Compound concentration 1000.0 nM
[42] = system: Proto-oncogene tyrosine-protein kinase receptor Ret (Homo sapiens), P07949 [M918T]; details: Compound concentration 1000.0 nM
[43] = target: 1-phosphatidylinositol 3-phosphate 5-kinase (Homo sapiens) (UniProt Q9Y2I7); details: Compound concentration 1000.0 nM

Chain of Beta-1 adrenergic receptor (Homo sapiens) (P08588 whole entry, looked up): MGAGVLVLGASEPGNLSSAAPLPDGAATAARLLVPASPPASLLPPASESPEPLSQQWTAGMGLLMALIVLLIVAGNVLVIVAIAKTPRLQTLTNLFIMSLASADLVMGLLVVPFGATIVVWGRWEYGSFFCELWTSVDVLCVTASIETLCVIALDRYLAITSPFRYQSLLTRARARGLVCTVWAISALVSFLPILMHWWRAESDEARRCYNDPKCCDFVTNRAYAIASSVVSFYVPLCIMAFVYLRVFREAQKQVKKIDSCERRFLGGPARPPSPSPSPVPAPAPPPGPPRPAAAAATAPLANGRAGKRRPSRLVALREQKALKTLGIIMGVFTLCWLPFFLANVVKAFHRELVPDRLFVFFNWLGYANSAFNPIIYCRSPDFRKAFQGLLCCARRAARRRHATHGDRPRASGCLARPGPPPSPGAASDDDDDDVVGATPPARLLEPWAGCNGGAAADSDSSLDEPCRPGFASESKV
Chain of Histamine H1 receptor (Homo sapiens) (P35367 whole entry): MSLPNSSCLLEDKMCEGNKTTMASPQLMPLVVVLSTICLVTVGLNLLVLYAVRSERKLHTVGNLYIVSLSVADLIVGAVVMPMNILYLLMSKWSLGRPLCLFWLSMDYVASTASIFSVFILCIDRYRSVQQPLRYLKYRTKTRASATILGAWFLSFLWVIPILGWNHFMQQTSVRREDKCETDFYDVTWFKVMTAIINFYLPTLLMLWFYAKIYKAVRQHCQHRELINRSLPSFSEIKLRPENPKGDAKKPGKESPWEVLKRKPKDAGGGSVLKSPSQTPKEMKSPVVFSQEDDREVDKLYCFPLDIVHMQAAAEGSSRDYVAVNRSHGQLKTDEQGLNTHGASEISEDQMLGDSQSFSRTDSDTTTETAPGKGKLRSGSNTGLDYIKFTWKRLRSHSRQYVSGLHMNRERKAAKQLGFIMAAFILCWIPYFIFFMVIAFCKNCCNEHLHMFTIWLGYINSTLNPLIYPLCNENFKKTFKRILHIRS
Chain of Substance-P receptor (Homo sapiens) (P25103 whole entry): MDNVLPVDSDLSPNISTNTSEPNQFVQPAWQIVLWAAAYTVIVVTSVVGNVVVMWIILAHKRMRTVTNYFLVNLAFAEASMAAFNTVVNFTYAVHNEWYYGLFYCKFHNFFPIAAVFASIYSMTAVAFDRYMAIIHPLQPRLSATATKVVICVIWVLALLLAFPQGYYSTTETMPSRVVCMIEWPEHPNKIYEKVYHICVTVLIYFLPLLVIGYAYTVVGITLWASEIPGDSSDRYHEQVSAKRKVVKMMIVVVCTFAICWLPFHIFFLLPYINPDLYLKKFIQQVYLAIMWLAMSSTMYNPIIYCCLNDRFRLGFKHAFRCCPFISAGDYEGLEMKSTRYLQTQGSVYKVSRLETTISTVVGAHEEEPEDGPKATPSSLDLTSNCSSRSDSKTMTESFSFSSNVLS
Chain of Serine/threonine-protein kinase 38 (Homo sapiens) (Q15208 2-465 limits assumed): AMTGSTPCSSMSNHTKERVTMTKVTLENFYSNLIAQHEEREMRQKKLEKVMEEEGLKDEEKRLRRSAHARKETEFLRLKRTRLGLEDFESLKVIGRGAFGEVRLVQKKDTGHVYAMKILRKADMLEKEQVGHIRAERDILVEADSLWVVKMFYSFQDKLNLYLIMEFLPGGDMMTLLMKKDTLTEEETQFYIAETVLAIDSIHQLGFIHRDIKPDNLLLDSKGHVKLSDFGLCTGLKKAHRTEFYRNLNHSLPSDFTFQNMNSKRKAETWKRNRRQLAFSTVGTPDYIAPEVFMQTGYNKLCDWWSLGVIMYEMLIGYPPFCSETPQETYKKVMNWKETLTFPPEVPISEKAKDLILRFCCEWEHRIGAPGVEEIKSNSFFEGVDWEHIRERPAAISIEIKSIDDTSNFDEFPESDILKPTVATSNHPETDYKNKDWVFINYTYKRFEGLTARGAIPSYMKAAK
Chain of Mitogen-activated protein kinase kinase kinase 12 (Homo sapiens) (Q12852 whole entry): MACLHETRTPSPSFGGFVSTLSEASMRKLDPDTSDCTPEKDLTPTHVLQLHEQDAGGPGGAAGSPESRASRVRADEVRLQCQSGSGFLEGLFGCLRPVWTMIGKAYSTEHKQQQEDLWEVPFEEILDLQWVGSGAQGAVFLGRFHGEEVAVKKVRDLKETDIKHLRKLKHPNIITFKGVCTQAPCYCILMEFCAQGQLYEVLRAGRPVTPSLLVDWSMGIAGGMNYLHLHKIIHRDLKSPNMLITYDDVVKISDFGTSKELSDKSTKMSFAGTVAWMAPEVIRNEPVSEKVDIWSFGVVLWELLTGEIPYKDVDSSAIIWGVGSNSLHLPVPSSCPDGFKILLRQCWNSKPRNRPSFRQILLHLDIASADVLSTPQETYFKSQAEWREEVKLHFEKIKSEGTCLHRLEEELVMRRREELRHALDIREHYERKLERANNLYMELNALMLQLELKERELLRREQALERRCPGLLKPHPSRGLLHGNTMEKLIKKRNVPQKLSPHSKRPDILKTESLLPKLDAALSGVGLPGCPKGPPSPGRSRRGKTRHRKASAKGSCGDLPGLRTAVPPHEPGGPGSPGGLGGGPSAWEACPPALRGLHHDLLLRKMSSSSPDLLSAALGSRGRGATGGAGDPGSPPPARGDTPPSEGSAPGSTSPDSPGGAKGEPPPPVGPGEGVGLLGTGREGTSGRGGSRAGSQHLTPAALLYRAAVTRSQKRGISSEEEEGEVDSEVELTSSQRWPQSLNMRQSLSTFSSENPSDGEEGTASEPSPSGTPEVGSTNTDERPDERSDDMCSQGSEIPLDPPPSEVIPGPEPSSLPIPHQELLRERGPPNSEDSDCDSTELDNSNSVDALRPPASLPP
Chain of Receptor-interacting serine/threonine-protein kinase 4 (Homo sapiens) (P57078 whole entry): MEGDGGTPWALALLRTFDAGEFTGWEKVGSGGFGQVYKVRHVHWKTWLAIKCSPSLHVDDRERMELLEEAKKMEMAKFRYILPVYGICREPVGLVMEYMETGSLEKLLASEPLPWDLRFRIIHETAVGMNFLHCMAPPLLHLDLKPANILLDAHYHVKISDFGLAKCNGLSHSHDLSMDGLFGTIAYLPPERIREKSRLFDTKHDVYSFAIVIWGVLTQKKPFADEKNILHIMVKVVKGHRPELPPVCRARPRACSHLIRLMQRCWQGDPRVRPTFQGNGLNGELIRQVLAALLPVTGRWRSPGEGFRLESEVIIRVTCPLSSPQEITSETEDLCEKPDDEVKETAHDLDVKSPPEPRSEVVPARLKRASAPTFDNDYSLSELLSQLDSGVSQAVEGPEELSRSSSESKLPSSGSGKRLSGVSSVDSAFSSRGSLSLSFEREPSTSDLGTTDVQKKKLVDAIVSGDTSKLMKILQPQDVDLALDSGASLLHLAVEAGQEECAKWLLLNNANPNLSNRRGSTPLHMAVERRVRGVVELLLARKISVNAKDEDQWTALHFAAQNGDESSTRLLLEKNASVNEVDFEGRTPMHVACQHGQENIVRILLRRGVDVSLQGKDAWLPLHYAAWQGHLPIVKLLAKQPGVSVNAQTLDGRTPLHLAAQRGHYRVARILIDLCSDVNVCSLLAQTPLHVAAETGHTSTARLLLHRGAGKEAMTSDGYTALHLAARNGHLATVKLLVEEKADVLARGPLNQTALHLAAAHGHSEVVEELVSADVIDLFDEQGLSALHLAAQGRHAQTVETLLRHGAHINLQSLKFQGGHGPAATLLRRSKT
Chain of Serine/threonine-protein kinase pim-2 (Homo sapiens) (Q9P1W9 whole entry, looked up): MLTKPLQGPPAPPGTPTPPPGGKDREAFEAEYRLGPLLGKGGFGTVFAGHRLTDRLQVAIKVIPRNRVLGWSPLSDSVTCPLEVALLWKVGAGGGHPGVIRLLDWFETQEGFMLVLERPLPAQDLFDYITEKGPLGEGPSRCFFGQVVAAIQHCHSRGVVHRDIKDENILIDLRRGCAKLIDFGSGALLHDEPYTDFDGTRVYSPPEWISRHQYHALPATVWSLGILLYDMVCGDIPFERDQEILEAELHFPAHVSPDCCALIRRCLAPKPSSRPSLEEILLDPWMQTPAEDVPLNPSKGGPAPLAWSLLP
Chain of Ephrin type-A receptor 8 (Homo sapiens) (P29322 whole entry): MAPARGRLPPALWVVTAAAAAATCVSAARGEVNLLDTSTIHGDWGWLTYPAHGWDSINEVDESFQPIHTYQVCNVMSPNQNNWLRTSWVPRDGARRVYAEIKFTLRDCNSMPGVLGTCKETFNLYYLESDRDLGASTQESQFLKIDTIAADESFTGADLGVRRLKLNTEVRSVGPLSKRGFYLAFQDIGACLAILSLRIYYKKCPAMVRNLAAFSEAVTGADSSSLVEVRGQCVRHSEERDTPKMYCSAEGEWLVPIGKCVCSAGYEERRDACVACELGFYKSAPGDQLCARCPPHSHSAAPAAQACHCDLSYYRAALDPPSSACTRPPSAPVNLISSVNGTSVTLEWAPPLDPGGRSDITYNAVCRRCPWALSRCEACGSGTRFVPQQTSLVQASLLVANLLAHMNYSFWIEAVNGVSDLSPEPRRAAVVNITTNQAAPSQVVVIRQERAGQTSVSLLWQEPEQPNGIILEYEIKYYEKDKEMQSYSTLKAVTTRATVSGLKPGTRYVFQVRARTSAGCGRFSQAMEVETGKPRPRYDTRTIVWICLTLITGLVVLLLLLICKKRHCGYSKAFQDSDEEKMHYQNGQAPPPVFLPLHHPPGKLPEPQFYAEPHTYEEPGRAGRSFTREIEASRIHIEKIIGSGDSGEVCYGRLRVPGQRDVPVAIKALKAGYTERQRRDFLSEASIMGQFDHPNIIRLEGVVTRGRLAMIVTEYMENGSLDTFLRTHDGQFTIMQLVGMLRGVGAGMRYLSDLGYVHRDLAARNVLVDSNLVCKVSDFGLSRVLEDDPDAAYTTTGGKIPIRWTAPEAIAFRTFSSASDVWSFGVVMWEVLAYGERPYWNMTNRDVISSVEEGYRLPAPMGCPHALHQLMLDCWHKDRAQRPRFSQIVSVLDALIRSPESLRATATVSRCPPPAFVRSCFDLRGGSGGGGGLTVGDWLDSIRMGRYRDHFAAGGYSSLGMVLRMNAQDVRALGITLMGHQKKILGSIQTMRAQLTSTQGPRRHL

Compound Cc1noc([C@H]2C[C@@H](c3ccc(C(F)(F)F)cc3)CN(C(=O)N3CCS(=O)(=O)C3)C2)n1 [BAY-448] has a residual activity [1] of 100%, a residual activity [2] of 100% and a residual activity [3] of 92%. For the same compound, the residual activity [4] was 100%, the residual activity [5] was 100% and the residual activity [6] was 100%. For the same compound, the residual activity [7] was 100%, the residual activity [8] was 100% and the residual activity [9] was 100%. For the same compound, the residual activity [10] was 100%, the residual activity [11] was 28% and the residual activity [12] was 84%. It also gave a residual activity [13] of 100%, a residual activity [14] of 100% and a residual activity [15] of 100%. The residual activity [16] was 100%, the residual activity [17] was 68% and the residual activity [18] was 100%. For the same compound, the % Inhibition of Control Agonist Response (Mean n=2) [19] was -14.6%, the % of Control Agonist Response (Mean n=2) [19] was 0.3% and the residual activity [20] was 100%. It also gave a residual activity [21] of 100%, a residual activity [22] of 100% and a residual activity [23] of 75%. The residual activity [24] was 100%, the % Inhibition of Control Agonist Response (Mean n=2) [25] was 2.1% and the % of Control Agonist Response (Mean n=2) [25] was 0.3%. For the same compound, the inhibition [26] was 10.5%, the residual activity [27] was 71% and the residual activity [28] was 100%. The residual activity [29] was 100%, the residual activity [30] was 94% and the residual activity [31] was 89%. For the same compound, the residual activity [32] was 100%, the residual activity [33] was 73% and the % Inhibition of Control Agonist Response (Mean n=2) [34] was 6.8%. For the same compound, the % of Control Agonist Response (Mean n=2) [34] was 0.3%, the IC50 [35] was > 5 µM (not active) and the inhibition (Rattus norvegicus) was 7.2%. The residual activity [36] was 100%, the residual activity [37] was 100% and the residual activity [38] was 91%. For the same compound, the residual activity [39] was 100%, the residual activity [40] was 100% and the residual activity [41] was 100%. It also gave a residual activity [42] of 100% and a residual activity [43] of 100%.
Work on O=C(N1CCS(=O)(=O)CC1)N1C[C@H](c2ccc(OC(F)(F)F)cc2)C[C@H](c2nc(C3CC3)no2)C1 [BAY-386] yielded a residual activity [1] of 100%, a residual activity [2] of 97% and a residual activity [3] of 0%. It also gave a residual activity [4] of 100%, a residual activity [5] of 98% and a residual activity [6] of 100%. For the same compound, the residual activity [7] was 88%, the residual activity [8] was 79% and the residual activity [9] was 100%. It also gave a residual activity [10] of 100%, a residual activity [11] of 100% and a residual activity [12] of 100%. For the same compound, the residual activity [13] was 100%, the residual activity [14] was 94% and the residual activity [15] was 100%. The residual activity [16] was 100%, the residual activity [17] was 97% and the residual activity [18] was 100%. The % Inhibition of Control Agonist Response (Mean n=2) [19] was 6.9%, the % of Control Agonist Response (Mean n=2) [19] was 4.1% and the residual activity [20] was 100%. It also gave a residual activity [21] of 92%, a residual activity [22] of 100% and a residual activity [23] of 100%. It also gave a residual activity [24] of 99%, a % Inhibition of Control Agonist Response (Mean n=2) [25] of 23.3% and a % of Control Agonist Response (Mean n=2) [25] of 1.8%. It also gave an inhibition [26] of 11.6%, a residual activity [27] of 88% and a residual activity [28] of 100%. The residual activity [29] was 94%, the residual activity [30] was 100% and the residual activity [31] was 96%. For the same compound, the residual activity [32] was 100%, the residual activity [33] was 100% and the % Inhibition of Control Agonist Response (Mean n=2) [34] was -0.2%. For the same compound, the % of Control Agonist Response (Mean n=2) [34] was 3.4%, the IC50 [35] was > 10 µM (not active) and the inhibition (Rattus norvegicus) was 14.9%. It also gave a residual activity [36] of 100%, a residual activity [37] of 100% and a residual activity [38] of 100%. It also gave a residual activity [39] of 89%, a residual activity [40] of 100% and a residual activity [41] of 95%. The residual activity [42] was 92% and the residual activity [43] was 100%.
